Reference: patent publication US20230146455A1, “TREATMENT OF INFLAMMATORY DISEASES WITH PEPTIDES AND PHARMACEUTICAL COMPOSITIONS” (Yuyu Pharma, Inc., priority 2020, published 2023)
Where “and” joins values, the source holds several entries; their conditions need not be identical. Equal values may be shown once. Where a SMILES comes first, the peptide text is derived from it. [ ]: non-standard residue; d: D form. Hyp = O=C(O)[C@@H]1C[C@@H](O)CN1

Tested on: CCL3/MIP-1 alpha
Assay: Example 8 main study Luminex, LPS hPBMCs: CCL3/MIP-1 alpha
Type: cell-based, human
Conditions: for LPS-induced CCL-3 (in words): at as low as 5 μM, LPS 5 ug/mL 24 hrs
Method: Human PBMCs were pretreated with YY-101, YDE-011, YDE-043 or reference compound; Xiidra® at various concentration (ranging from […] to 500 nM) for 2 h before stimulation. An equal volume of 0.5% DMSO was used as a vehicle control. Then, the cells were treated with LPS at 5 ug/ml, which was selected based on the pilot study. The supernatants from treated cells were harvested at 24 h and placed in a 96 well for Luminex cytokine & chemokine profiling using a Luminex 200 multiplex assay (Luminex; R&D system, USA).
The main study arm with triplicate wells per group in a 24-well plate: • 1. Blank • 2. PBMC: 0.5% DMSO • 3. PBMC+LPS (5 ug/ml) • 4. PBMC+YY-101 500 nM • 5. PBMC+YY-101 50 nM • 6. PBMC+YY-101 5 nM • 7. PBMC+YY-101 0.5 nM • 8. PBMC+LPS (5 ug/ml)+Xiidra® 500 nM • 9. PBMC+LPS (5 ug/ml)+Xiidra® 50 nM • 10. PBMC+LPS (5 ug/ml)+Xiidra® 5 nM • 11. PBMC+LPS (5 ug/ml)+Xiidra® 0.5 nM • 12. PBMC+LPS (5 ug/ml)+Xiidra® 0.05 nM • 13. PBMC+LPS (5 ug/ml)+Xiidra® 0.005 nM • 14. PBMC+LPS (5 ug/ml)+YY-101 500 nM • 15. PBMC+LPS (5 ug/ml)+YY-101 50 nM • 16. PBMC+LPS (5 ug/ml)+YY-101 5 nM • 17. PBMC+LPS (5 ug/ml)+YY-101 0.5 nM • 18. PBMC+LPS (5 ug/ml)+YY-101 0.05 nM • 19. PBMC+LPS (5 ug/ml)+YY-101 0.005 nM • 20. PBMC+LPS (5 ug/ml)+YDE-011 500 nM • 21. PBMC+LPS (5 ug/ml)+YDE-011 50 nM • 22. PBMC+LPS (5 ug/ml)+YDE-011 5 nM • 23. PBMC+LPS (5 ug/ml)+YDE-011 0.5 nM • 24. PBMC+LPS (5 ug/ml)+YDE-011 0.05 nM • 25. PBMC+LPS (5 ug/ml)+YDE-011 0.005 nM • 26. PBMC+LPS (5 ug/ml)+YDE-043 500 nM • 27. PBMC+LPS (5 ug/ml)+YDE-043 50 nM • 28. PBMC+LPS (5 ug/ml)+YDE-043 5 nM • 29. PBMC+LPS (5 ug/ml)+YDE-043 0.5 nM • 30. PBMC+LPS (5 ug/ml)+YDE-043 0.05 nM • 31. PBMC+LPS (5 ug/ml)+YDE-043 0.005 nM
Multiplex assay was used to measure 30 cytokines and chemokines. The 1:200 diluted cell supernatant and serial dilution of the standard were dispensed into a 96 well plate at 50 ul/well. Then, the pre-mixed cocktail of antibody-coated magnetic beads was dispensed at 50 ul/well and incubated at room temperature for 2 h in a horizontal orbital microplate shaker at 800±500 rpm. The beads were washed using a magnetic device to prevent loss. The biotin-antibody was dispensed in 50 ul of each well and incubated at room temperature for 1 h in a shaker at 800±500 rpm. After washing, streptavidin-PE was added at 50 ul/well and incubated at room temperature for 30 min in a shaker under the same conditions. Finally, after washing, wash buffer (100 ul/well) was added to the plate and incubated in a shaker for 2 min. The Luminex™ 200 setting were set according to the manufacturer's protocol. The data was calculated with a standard five-parameter logistic nonlinear regression analysis of the data (xPonent software 4.2, USA). Results were presented as concentration (ng/ml or pg/ml).

[1] = PBMC + LPS(5 ug/ml) + test article 0.005 nM, Mean
[2] = PBMC + LPS(5 ug/ml) + test article 0.005 nM, single replicates
[3] = PBMC + LPS(5 ug/ml) + test article 0.05 nM, Mean
[4] = PBMC + LPS(5 ug/ml) + test article 0.05 nM, single replicates
[5] = PBMC + LPS(5 ug/ml) + test article 0.5 nM, Mean
[6] = PBMC + LPS(5 ug/ml) + test article 0.5 nM, single replicates
[7] = PBMC + LPS(5 ug/ml) + test article 5 nM, Mean
[8] = PBMC + LPS(5 ug/ml) + test article 5 nM, single replicates
[9] = PBMC + LPS(5 ug/ml) + test article 50 nM, Mean
[10] = PBMC + LPS(5 ug/ml) + test article 50 nM, single replicates
[11] = PBMC + LPS(5 ug/ml) + test article 500 nM, Mean
[12] = PBMC + LPS(5 ug/ml) + test article 500 nM, single replicates
[13] = PBMC + test article 0.5 nM, no LPS, Mean
[14] = PBMC + test article 0.5 nM, no LPS, single replicates
[15] = PBMC + test article 5 nM, no LPS, Mean
[16] = PBMC + test article 5 nM, no LPS, single replicates
[17] = PBMC + test article 0.05 uM, no LPS, Mean
[18] = PBMC + test article 0.05 uM, no LPS, single replicates
[19] = PBMC + test article 50 nM, no LPS, Mean
[20] = PBMC + test article 50 nM, no LPS, single replicates
[21] = PBMC + test article 500 nM, no LPS, Mean
[22] = PBMC + test article 500 nM, no LPS, single replicates

CC(C)C[C@H](NC(=O)CNC(=O)[C@H](CC(C)C)NC(=O)[C@H](CCC(N)=O)NC(=O)CNC(=O)[C@@H]1C[C@@H](O)CN1)C(=O)N[C@@H](C)C(=O)NCC(=O)N1CCC[C@H]1C(=O)N[C@@H](CCCCN)C(=O)O [YDE-011] (H-[Hyp]GQLGLAGPK-OH)
CCL3/MIP-1 alpha Concentration [1]: 30631.2 pg/mL
CCL3/MIP-1 alpha MFI [1]: 40.8
CCL3/MIP-1 alpha Concentration [2]: 31818.4 pg/mL and 28790.7 pg/mL and 31284.6 pg/mL
CCL3/MIP-1 alpha MFI [2]: 43.0 and 37.5 and 42.0
CCL3/MIP-1 alpha Concentration [3]: 34293.4 pg/mL
CCL3/MIP-1 alpha MFI [3]: 47.8
CCL3/MIP-1 alpha Concentration [4]: 34390.9 pg/mL and 32865.8 pg/mL and 35623.4 pg/mL
CCL3/MIP-1 alpha MFI [4]: 48.0 and 45.0 and 50.5
CCL3/MIP-1 alpha Concentration [5]: 30465.1 pg/mL
CCL3/MIP-1 alpha MFI [5]: 40.5
CCL3/MIP-1 alpha Concentration [6]: 31284.6 pg/mL and 29639.8 pg/mL and 30470.7 pg/mL
CCL3/MIP-1 alpha MFI [6]: 42.0 and 39.0 and 40.5
CCL3/MIP-1 alpha Concentration [7]: 27362.3 pg/mL
CCL3/MIP-1 alpha MFI [7]: 35.2
CCL3/MIP-1 alpha Concentration [8]: 25497.0 pg/mL and 26119.3 pg/mL and 30470.7 pg/mL
CCL3/MIP-1 alpha MFI [8]: 32.0 and 33.0 and 40.5
CCL3/MIP-1 alpha Concentration [9]: 28334.6 pg/mL
CCL3/MIP-1 alpha MFI [9]: 37.3
CCL3/MIP-1 alpha Concentration [10]: 32865.8 pg/mL and 21122.8 pg/mL and 31015.1 pg/mL
CCL3/MIP-1 alpha MFI [10]: 45.0 and 25.5 and 41.5
CCL3/MIP-1 alpha Concentration [11]: 27851.5 pg/mL
CCL3/MIP-1 alpha MFI [11]: 36.8
CCL3/MIP-1 alpha Concentration [12]: 34390.9 pg/mL and 19244.9 pg/mL and 29918.7 pg/mL
CCL3/MIP-1 alpha MFI [12]: 48.0 and 23.0 and 39.5
LPS-induced CCL-3 (in words): significantly reduced

CC(C)C[C@H](NC(=O)[C@H](CCC(N)=O)NC(=O)CNC(=O)[C@@H]1C[C@@H](O)CN1)C(=O)NCC(=O)O [YDE-043] (H-[Hyp]GQLG-OH; N-terminus and C-terminus assumed)
CCL3/MIP-1 alpha Concentration [1]: 38526.9 pg/mL
CCL3/MIP-1 alpha MFI [1]: 57.3
CCL3/MIP-1 alpha Concentration [2]: 32345.4 pg/mL and 37296.1 pg/mL and 45939.1 pg/mL
CCL3/MIP-1 alpha MFI [2]: 44.0 and 54.0 and 74.0
CCL3/MIP-1 alpha Concentration [3]: 29535.1 pg/mL
CCL3/MIP-1 alpha MFI [3]: 38.8
CCL3/MIP-1 alpha Concentration [4]: 28213.9 pg/ml and 30195.7 pg/ml (2×)
CCL3/MIP-1 alpha MFI [4]: 36.5 and 40.0 (2×)
CCL3/MIP-1 alpha Concentration [5]: 30000.1 pg/mL
CCL3/MIP-1 alpha MFI [5]: 39.7
CCL3/MIP-1 alpha Concentration [6]: 29639.8 pg/mL and 31284.6 pg/mL and 29075.9 pg/mL
CCL3/MIP-1 alpha MFI [6]: 39.0 and 42.0 and 38.0
CCL3/MIP-1 alpha Concentration [7]: 31809.4 pg/mL
CCL3/MIP-1 alpha MFI [7]: 43.0
CCL3/MIP-1 alpha Concentration [8]: 31818.4 pg/mL and 32865.8 pg/mL and 30743.9 pg/mL
CCL3/MIP-1 alpha MFI [8]: 43.0 and 45.0 and 41.0
CCL3/MIP-1 alpha Concentration [9]: 31754.6 pg/mL
CCL3/MIP-1 alpha MFI [9]: 43.0
CCL3/MIP-1 alpha Concentration [10]: 33380.1 pg/ml (2×) and 28503.4 pg/ml
CCL3/MIP-1 alpha MFI [10]: 46.0 (2×) and 37.0
CCL3/MIP-1 alpha Concentration [11]: 28096.2 pg/mL
CCL3/MIP-1 alpha MFI [11]: 36.3
CCL3/MIP-1 alpha Concentration [12]: 28503.4 pg/mL and 26426.3 pg/mL and 29358.9 pg/mL
CCL3/MIP-1 alpha MFI [12]: 37.0 and 33.5 and 38.5
LPS-induced CCL-3 (in words): significantly reduced

CC(C)C[C@H](NC(=O)CNC(=O)[C@H](CC(=O)O)NC(=O)[C@H](CCC(N)=O)NC(=O)CNC(=O)[C@@H]1C[C@@H](O)CN1)C(=O)N[C@@H](C)C(=O)NCC(=O)N1CCC[C@H]1C(=O)N[C@@H](CCCCN)C(=O)O [YY-101] (H-[Hyp]GQDGLAGPK-OH; N-terminus and C-terminus assumed)
CCL3/MIP-1 alpha Concentration [1]: 33793.5 pg/mL
CCL3/MIP-1 alpha MFI [1]: 46.8
CCL3/MIP-1 alpha Concentration [2]: 35134.4 pg/mL and 33380.1 pg/mL and 32865.8 pg/mL
CCL3/MIP-1 alpha MFI [2]: 49.5 and 46.0 and 45.0
CCL3/MIP-1 alpha Concentration [3]: 36420.8 pg/mL
CCL3/MIP-1 alpha MFI [3]: 52.2
CCL3/MIP-1 alpha Concentration [4]: 35866.0 pg/ml (2×) and 37530.4 pg/ml
CCL3/MIP-1 alpha MFI [4]: 51.0 (2×) and 54.5
CCL3/MIP-1 alpha Concentration [5]: 34955.7 pg/mL
CCL3/MIP-1 alpha MFI [5]: 49.2
CCL3/MIP-1 alpha Concentration [6]: 36107.4 pg/mL and 33380.1 pg/mL and 35379.6 pg/mL
CCL3/MIP-1 alpha MFI [6]: 51.5 and 46.0 and 50.0
CCL3/MIP-1 alpha Concentration [7]: 34545.7 pg/mL
CCL3/MIP-1 alpha MFI [7]: 48.3
CCL3/MIP-1 alpha Concentration [8]: 33380.1 pg/mL and 35866.0 pg/mL and 34390.9 pg/mL
CCL3/MIP-1 alpha MFI [8]: 46.0 and 51.0 and 48.0
CCL3/MIP-1 alpha Concentration [9]: 33677.2 pg/mL
CCL3/MIP-1 alpha MFI [9]: 46.7
CCL3/MIP-1 alpha Concentration [10]: 31818.4 pg/mL and 36347.5 pg/mL and 32865.8 pg/mL
CCL3/MIP-1 alpha MFI [10]: 43.0 and 52.0 and 45.0
CCL3/MIP-1 alpha Concentration [11]: 33967.7 pg/mL
CCL3/MIP-1 alpha MFI [11]: 47.2
CCL3/MIP-1 alpha Concentration [12]: 33635.0 pg/mL and 34887.9 pg/mL and 33380.1 pg/mL
CCL3/MIP-1 alpha MFI [12]: 46.5 and 49.0 and 46.0
CCL3/MIP-1 alpha Concentration [13]: 16345.0 pg/mL
CCL3/MIP-1 alpha MFI [13]: 19.5
CCL3/MIP-1 alpha Concentration [14]: 15903.7 pg/mL and 16786.4 pg/mL
CCL3/MIP-1 alpha MFI [14]: 19.0 and 20.0
CCL3/MIP-1 alpha Concentration [15]: 14259.0 pg/mL
CCL3/MIP-1 alpha MFI [15]: 17.3
CCL3/MIP-1 alpha Concentration [16]: 14014.0 pg/mL and 14504.0 pg/mL
CCL3/MIP-1 alpha MFI [16]: 17.0 and 17.5
CCL3/MIP-1 alpha Concentration [17]: 13904.3 pg/mL
CCL3/MIP-1 alpha MFI [17]: 17.0
CCL3/MIP-1 alpha Concentration [18]: 15903.7 pg/mL and 11904.9 pg/mL
CCL3/MIP-1 alpha MFI [18]: 19.0 and 15.0
CCL3/MIP-1 alpha Concentration [19]: 14246.1 pg/mL
CCL3/MIP-1 alpha MFI [19]: 17.3
CCL3/MIP-1 alpha Concentration [20]: 13510.6 pg/mL and 14981.7 pg/mL
CCL3/MIP-1 alpha MFI [20]: 16.5 and 18.0
CCL3/MIP-1 alpha Concentration [21]: 14014.0 pg/mL
CCL3/MIP-1 alpha MFI [21]: 17.0
CCL3/MIP-1 alpha Concentration [22]: 14014.0 pg/mL
CCL3/MIP-1 alpha MFI [22]: 17.0
LPS-induced CCL-3 (in words): significantly reduced
